Calls of active or inactive are those of the source.
Experiments:
[1] = molecular target: Peroxisome proliferator-activated receptor gamma/Nuclear receptor coactivator 2 (Homo sapiens, UniProt P37231); assay type: functional;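 note: agonist potency for raising coactivator recruitment to the receptor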
[2] = molecular target: Peroxisome proliferator-activated receptor gamma/Nuclear receptor coactivator 1 (Homo sapiens, UniProt P37231); assay type: functional;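 note: agonist potency as compounds enhance coactivator SRC-1 recruitment to PPARgamma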
[3] = molecular target: Peroxisome proliferator-activated receptor gamma/Nuclear receptor coactivator 3 (Homo sapiens, UniProt P37231); assay type: functional;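 note: agonist potency for raising coactivator recruitment to the receptor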
Chain of Peroxisome proliferator-activated receptor gamma/Nuclear receptor coactivator 3 (P37231 whole entry): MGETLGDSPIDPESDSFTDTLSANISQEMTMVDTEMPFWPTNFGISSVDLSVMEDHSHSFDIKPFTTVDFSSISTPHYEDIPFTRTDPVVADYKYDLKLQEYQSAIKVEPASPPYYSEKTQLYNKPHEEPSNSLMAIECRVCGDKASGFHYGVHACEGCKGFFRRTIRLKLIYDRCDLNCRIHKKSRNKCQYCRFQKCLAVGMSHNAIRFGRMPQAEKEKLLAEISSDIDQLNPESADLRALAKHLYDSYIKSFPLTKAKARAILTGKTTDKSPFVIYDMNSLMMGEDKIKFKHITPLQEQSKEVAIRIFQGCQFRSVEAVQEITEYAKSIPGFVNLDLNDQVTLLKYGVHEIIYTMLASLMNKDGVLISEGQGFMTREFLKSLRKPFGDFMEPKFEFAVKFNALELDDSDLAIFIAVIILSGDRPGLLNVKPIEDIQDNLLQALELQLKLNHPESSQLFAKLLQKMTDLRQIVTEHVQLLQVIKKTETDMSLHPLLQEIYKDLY
Chain of Peroxisome proliferator-activated receptor gamma/Nuclear receptor coactivator 3 (Q9Y6Q9 whole entry, further chain): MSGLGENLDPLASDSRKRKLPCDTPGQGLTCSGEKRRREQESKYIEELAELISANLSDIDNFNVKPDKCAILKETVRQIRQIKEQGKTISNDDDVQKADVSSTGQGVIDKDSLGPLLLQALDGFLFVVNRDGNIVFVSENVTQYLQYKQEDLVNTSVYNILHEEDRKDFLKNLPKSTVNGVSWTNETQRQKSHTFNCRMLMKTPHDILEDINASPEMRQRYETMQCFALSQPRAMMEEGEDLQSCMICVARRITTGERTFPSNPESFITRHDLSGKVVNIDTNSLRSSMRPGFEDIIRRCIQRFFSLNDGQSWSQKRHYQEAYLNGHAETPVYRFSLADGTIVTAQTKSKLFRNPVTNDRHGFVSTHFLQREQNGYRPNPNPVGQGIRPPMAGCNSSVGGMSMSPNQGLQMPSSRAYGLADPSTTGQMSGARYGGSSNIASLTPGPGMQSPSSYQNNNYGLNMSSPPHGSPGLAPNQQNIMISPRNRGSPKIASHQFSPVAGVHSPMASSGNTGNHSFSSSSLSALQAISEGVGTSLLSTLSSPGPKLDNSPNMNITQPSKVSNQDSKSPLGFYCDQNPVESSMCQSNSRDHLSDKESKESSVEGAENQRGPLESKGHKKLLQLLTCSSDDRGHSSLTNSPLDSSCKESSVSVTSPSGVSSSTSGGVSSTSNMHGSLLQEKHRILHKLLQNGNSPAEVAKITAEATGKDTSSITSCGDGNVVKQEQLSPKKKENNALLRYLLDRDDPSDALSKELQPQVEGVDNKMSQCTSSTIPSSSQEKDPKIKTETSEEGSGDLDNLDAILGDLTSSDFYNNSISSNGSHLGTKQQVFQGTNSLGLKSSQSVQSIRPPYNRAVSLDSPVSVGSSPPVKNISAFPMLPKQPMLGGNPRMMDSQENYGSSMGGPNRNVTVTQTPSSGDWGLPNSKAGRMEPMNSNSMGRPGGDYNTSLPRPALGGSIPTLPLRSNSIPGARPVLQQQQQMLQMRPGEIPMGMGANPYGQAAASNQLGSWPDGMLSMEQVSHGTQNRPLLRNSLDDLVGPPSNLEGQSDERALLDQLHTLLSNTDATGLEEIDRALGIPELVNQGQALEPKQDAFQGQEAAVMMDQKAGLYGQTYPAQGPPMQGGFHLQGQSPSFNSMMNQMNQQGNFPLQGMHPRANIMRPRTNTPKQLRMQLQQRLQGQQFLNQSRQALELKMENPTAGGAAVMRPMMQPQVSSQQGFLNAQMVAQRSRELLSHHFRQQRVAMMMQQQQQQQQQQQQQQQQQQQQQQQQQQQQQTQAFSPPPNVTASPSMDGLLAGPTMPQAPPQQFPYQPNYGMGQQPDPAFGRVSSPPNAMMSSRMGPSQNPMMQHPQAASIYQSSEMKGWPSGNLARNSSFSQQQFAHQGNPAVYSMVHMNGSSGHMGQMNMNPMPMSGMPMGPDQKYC

[4] = test system: Vero; experiment: host cell cytotoxicity of antiviral hits, dose response, cytotoxicity control for West Nile virus antiviral project, secondary assay (AID 1650); assay type: functional, Chlorocebus sabaeus; conditions: Chlorocebus sabaeus, Vero
[5] = molecular target: T1, Cytochrome P450 3A4 (Homo sapiens, UniProt P08684);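 note: CYP3A4 tested as one member of a cytochrome P450 panel screen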
T1 sequence (P08684 whole entry): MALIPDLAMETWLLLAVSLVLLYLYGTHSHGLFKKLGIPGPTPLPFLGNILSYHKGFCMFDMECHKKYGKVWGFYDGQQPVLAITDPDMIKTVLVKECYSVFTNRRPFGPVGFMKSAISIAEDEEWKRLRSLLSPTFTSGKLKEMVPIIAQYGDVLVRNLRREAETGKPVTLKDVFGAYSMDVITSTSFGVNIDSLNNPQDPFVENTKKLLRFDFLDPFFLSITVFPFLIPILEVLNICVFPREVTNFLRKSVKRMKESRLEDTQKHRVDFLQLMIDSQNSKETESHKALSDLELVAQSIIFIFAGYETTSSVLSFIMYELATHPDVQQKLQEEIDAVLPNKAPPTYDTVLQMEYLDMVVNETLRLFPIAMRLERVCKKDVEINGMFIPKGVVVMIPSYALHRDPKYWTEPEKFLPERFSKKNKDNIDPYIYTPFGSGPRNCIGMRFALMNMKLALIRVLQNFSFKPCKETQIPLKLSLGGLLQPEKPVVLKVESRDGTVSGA

[6] = molecular target: T2, Neuropeptide Y receptor type 1 (Homo sapiens, UniProt P25929); assay type: functional;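 note: HEK293 cells with a CNG channel challenged with NPY then isoproterenol; potency as antagonist that reverses NPY suppression of cAMP signal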
T2 sequence (P25929 whole entry): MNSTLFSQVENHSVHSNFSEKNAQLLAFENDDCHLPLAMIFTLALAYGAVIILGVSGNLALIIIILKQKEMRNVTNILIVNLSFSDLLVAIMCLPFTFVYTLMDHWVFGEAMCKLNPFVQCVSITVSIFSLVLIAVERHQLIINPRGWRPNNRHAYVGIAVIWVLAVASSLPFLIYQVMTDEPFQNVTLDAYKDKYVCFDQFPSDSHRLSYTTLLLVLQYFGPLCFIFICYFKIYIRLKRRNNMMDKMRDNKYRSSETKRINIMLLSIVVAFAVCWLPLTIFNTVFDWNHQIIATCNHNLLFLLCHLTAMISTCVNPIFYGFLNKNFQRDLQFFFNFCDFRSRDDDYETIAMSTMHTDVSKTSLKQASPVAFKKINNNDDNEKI

[7] = molecular target: T3, Neuropeptide Y receptor type 2 (Homo sapiens, UniProt P49146); assay type: functional, cell-based;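 note: HEK293 cells expressing the receptor and a CNG channel; stimulus was NPY near EC95 followed by isoproterenol to raise cAMP; antagonist potency measured as restoring cAMP signal that NPY suppresses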
T3 sequence (P49146 whole entry): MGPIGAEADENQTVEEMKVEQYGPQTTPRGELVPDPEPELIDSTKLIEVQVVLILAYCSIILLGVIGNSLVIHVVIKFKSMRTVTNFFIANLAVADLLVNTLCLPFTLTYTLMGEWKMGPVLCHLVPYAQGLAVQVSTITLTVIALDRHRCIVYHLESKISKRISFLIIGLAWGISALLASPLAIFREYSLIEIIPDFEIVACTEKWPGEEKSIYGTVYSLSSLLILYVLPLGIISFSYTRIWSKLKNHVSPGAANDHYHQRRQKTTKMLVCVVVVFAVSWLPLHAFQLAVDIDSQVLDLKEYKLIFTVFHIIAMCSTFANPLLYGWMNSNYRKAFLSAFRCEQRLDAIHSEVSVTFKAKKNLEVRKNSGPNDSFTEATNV

[8] = molecular target: T1, Cytochrome P450 3A4; remark: listed apart in the source
[9] = molecular target: Glyceraldehyde-3-phosphate dehydrogenase (Homo sapiens, UniProt P04406)
Chain of Glyceraldehyde-3-phosphate dehydrogenase (P04406 whole entry): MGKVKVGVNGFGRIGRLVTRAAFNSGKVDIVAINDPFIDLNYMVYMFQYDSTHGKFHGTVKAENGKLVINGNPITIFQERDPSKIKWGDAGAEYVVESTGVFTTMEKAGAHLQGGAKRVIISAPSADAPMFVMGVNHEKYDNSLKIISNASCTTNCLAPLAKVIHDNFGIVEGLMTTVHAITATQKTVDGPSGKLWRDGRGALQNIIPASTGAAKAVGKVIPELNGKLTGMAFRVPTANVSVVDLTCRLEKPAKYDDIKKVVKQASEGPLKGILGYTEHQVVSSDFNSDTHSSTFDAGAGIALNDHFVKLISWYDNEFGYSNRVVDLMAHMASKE

[10] = molecular target: T4, Alkaline phosphatase, tissue-nonspecific isozyme (Homo sapiens, UniProt P05186); experiment: human TNAP enzyme inhibitors, SAR follow-up, biochemical, luminescent, dose response (AID 1056)
T4 sequence (P05186 whole entry): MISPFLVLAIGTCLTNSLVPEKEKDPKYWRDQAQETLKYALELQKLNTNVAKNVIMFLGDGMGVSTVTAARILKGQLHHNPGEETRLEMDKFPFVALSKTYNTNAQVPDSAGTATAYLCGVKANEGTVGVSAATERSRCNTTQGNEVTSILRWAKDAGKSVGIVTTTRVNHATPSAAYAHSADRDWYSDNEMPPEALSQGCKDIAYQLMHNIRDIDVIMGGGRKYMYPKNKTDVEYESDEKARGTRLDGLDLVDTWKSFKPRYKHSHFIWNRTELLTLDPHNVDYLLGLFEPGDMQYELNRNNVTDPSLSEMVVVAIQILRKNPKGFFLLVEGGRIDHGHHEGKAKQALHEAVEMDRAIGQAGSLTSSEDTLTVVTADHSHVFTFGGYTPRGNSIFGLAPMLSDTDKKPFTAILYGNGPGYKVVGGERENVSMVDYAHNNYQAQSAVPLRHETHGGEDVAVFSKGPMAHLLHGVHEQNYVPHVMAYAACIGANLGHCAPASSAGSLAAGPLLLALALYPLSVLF

[11] = THP-1 cell cytotoxicity, dose response, cytotoxicity control for non-replicating M. tuberculosis project (AID 489025); assay type: functional
[12] = HepG2 cell cytotoxicity, dose response, cytotoxicity control for non-replicating M. tuberculosis project (AID 489018); assay type: functional; conditions: Mycobacterium tuberculosis
[13] = Vero E6 cell cytotoxicity, dose response, cytotoxicity control for non-replicating M. tuberculosis project, secondary assay (AID 492998); assay type: functional, VeroE6; conditions: Vero C1008
[14] = cells; assay type: functional
[15] = molecular target: T5, Hexokinase (Trypanosoma brucei, UniProt Q38C41); experiment: Confirmation assay for inhibitors of Trypanosoma brucei hexokinase 1-Analogue-first series. [Related pubchem assays (depositor defined):AID1430, AID1632, AID2516, AID2560, AID2579, AID2600, AID449725, AID492951]; assay type: functional
T5 sequence (Q38C41 whole entry): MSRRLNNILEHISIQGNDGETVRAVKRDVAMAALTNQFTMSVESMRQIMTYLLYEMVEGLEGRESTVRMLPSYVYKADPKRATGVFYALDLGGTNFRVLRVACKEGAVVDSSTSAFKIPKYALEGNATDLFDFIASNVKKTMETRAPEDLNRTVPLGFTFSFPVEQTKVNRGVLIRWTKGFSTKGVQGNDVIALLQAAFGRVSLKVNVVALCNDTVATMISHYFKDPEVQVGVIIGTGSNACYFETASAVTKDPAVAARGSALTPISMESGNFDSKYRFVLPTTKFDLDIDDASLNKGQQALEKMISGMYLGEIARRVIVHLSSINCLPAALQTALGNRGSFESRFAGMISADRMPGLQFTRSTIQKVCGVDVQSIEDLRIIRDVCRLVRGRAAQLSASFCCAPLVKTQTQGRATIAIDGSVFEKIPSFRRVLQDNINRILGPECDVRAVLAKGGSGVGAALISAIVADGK

Chain of Peroxisome proliferator-activated receptor gamma/Nuclear receptor coactivator 2 (P37231 whole entry): as the sequence (P37231 whole entry) above
Chain of Peroxisome proliferator-activated receptor gamma/Nuclear receptor coactivator 2 (Q15596 whole entry, further chain): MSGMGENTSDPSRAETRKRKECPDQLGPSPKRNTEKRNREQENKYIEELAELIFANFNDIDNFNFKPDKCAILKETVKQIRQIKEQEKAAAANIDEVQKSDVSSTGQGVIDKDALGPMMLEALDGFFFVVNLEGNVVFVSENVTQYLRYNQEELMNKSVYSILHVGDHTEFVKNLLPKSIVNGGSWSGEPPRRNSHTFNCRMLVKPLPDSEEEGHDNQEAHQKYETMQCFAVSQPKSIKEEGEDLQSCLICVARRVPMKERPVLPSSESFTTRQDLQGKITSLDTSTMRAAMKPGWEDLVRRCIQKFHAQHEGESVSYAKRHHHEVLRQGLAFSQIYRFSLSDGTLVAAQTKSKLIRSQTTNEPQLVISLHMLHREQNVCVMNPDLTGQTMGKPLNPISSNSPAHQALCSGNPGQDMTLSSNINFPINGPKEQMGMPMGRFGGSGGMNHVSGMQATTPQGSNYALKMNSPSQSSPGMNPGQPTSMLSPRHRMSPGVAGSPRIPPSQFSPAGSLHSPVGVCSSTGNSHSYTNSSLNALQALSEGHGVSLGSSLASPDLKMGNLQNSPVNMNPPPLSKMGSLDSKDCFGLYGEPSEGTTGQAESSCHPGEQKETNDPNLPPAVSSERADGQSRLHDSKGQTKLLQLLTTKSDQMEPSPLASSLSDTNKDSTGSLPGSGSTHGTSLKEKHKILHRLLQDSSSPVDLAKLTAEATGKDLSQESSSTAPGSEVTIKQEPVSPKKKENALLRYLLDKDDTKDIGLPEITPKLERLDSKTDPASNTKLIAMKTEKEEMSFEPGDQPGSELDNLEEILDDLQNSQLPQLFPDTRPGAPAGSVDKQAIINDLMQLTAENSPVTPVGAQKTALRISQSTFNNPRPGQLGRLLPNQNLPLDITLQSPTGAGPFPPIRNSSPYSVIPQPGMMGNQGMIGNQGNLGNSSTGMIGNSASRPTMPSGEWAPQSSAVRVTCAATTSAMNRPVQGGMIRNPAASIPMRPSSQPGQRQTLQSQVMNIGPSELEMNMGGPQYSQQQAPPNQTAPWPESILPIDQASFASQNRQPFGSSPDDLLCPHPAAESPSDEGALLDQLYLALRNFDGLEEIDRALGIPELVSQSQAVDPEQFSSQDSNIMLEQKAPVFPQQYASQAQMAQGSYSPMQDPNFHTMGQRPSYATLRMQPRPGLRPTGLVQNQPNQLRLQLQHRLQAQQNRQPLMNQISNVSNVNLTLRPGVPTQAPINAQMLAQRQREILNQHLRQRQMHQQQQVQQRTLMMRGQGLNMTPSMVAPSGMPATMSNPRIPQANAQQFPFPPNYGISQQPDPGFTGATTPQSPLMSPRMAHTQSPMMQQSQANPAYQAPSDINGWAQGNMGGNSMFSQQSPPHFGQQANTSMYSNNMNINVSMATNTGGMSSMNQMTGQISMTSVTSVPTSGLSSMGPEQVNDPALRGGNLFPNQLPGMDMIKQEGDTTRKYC

Q: Which EC50 [1] does the source give for `Cc1nc(SCC(=O)c2ccc(Cl)s2)c2oc3ccccc3c2n1` here?
A: > 79.4 µM (not active)

Q: What about the EC50 [2] of the same compound?
A: > 79.4 µM (not active)

Q: What about the EC50 [3] of the same compound?
A: > 79.4 µM (not active)

Q: And the CC50 [4]?
A: 23.6 µM (active)

Q: What about the AC50 [5] of the same compound?
A: 2.82 µM (inconclusive)

Q: What does the source list for `Nc1c2c(nc3sc4c(c13)CCCC4)CCCCCC2`?
A: IC50 [6]: 26.7 µM (not active); IC50 [7]: > 35 µM (not active)

Q: For `COc1ccccc1C(=O)Nc1cccc(-c2cn3ccsc3n2)c1`, which EC50 [1] is on record?
A: > 79.4 µM (not active)

Q: What about the EC50 [2] of the same compound?
A: > 79.4 µM (not active)

Q: And the EC50 [3]?
A: > 79.4 µM (not active)

Q: Which AC50 [8] does the source give for `COC(=O)N1CCC2(CC1)CN(c1ccccc1)C2` here?
A: inconclusive

Q: For `O=S(=O)(Nc1cnc2ccccc2c1)c1cc(Cl)ccc1Cl`, which IC50 [9] is on record?
A: > 100 µM (not active)

Q: What about the IC50 [10] of the same compound?
A: 49.6 µM (active)

Q: Which CC50 [11] does the source give for `CCc1ccc2c(c1)Sc1ccccc1CC2N1CCN(C)CC1` (stereo not drawn) here?
A: 15.8 µM (active)

Q: What about the CC50 [12] of the same compound?
A: > 20 µM (active)

Q: And the CC50 [13]?
A: > 20 µM (active)

Q: And the IC50 [14]?
A: 14.1 µM (active)

Q: Which IC50 [15] does the source give for `O=C(O)c1ccc(Cl)cc1NC(=O)C1CCOCC1` here?
A: > 25 µM (inactive)

Reference: ChEMBL document CHEMBL1201862, “PubChem BioAssay data set” (2004)
